In patent US11040952B2, “Phthalazinone compound, method for preparation thereof, pharmaceutical composition thereof, and use thereof” (SHANGHAI INSTITUTE OF MATERIA MEDICA, CHINESE ACADEMY OF …, priority 2017, dated 2021):
Where two headings read alike, the source gives them in different places.

How the values were obtained:
[1] = MTT assay for cytotoxicity; format: cell-based, Human; details: human, HepG2.2.15 cells, half (50%) lethal concentration
In short: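 HBV-transfected HepG2.2.15 cells were cultured with compound for 8 days at 37 °C in DMEM/10% FBS, with medium changed on day 4. Viability was read by MTT (4 h, then 12 h lysis, OD570) against control wells. CC50 is the concentration cutting viability by 50%.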

HBV = HBV DNA content in the supernatant of cell culture (real-time PCR); format: cell-based, hepatitis B virus (HBV); details: Hepatitis B virus, HepG2.2.15, 192 h, inhibition of HBV DNA replication, HepG2.2.15 supernatant, 8 days
In short: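 HepG2.2.15 cells stably carrying full-length HBV exposed to compounds for 8 days in DMEM with 10% FBS, medium renewed on day 4. Supernatant virion HBV DNA extracted and quantified by real-time PCR against a 1e^7-1e^4 IU/ml standard curve; IC50 calculated.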

HBV capsid = target: T1, HBV capsid (Hepatitis B virus genotype D subtype ayw, UniProt P03146); test: HBV capsid assembly, non-denaturing agarose gel electrophoresis; format: cell-based; details: FIG. 1; for content of HBV DNA in the capsid: Southern blot with HBV-specific probes; for generation of abnormal capsid (electrophoretic migration): non-denaturing agarose gel, anti-HBcAg Western blot
T1 construct: expressed in transfected cells
T1 sequence (P03146 whole entry): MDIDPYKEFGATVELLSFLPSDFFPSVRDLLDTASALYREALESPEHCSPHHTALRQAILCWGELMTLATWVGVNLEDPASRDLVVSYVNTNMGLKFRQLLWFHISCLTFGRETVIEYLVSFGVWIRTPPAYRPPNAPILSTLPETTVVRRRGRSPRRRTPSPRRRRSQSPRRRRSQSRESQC
Protocol: 1×10^6 dispersed cells were added with […] of cell lysate (50 mM Tris-HCl pH 7.5, 1 mM EDTA, 0.5% Nonidet P-40), and lysed on ice for 15 min, with vortexing every 5 min to make sure that the cells were sufficiently lysed. The lysed cells were centrifuged at 10,000×g for 10 min at 4° C. to remove nuclei and cell debris. 20 μl of the cell lysate was added into the well of 1.2% or 1.8% agarose gel. Electrophoresis was run at 70V for 2.5 h at 4° C. […] After electrophoresis, the membrane-transferring was performed by siphon overnight. One sample was transferred to a nitrocellulose membrane (Amersham™ Hybond-ECL, GE), and the capsid was detected with anti-HBcAg antibody (Abcam) using Western blot method; another sample was in situ denatured with a denaturing solution (1.5 M NaCl, 0.5 M NaOH) for 45 min, neutralized with a neutralizing solution (1.5 M NaCl, 1 M Tris-HCl pH 7.4) for 45 min, and transferred to a nylon membrane (Amersham™ Hybond-N+, GE), and then the level of nucleic acid in the capsid was detected with HBV-specific probes by using Southern blot method.

[2] = Tissue distribution in mice; format: in vivo; details: po 10 mg/kg
Protocol: 10 μl of a plasma and tissue sample was placed in a 1.5 ml centrifuge tube, added with 100 μl of an internal standard solution (5.00 ng/ml verapamil and 50.0 ng/ml Glibenclamide solution in acetonitrile), vortexed for 60 seconds, and then centrifuged for 3 min (at 12000 rpm); 75 μl of the supernatant was transferred to a 96-well plate loaded with an equal volume of water, and shaken for mixing well and then analyzed. The injection volume was 10 μl. Internal standard: an appropriate amount of verapamil and glibenclamide standards were dissolved and diluted in dimethyl sulfoxide (DMSO), shaken for mixing well, and prepared into a stock solution with a mass concentration of 2000 μg/ml, which was further diluted into internal standard working solutions of 5.00 ng/ml and 50.0 ng/ml. Stock solution: an appropriate amount of the compound was weighted and formulated into a 2.00 mg/ml stock solution with DMSO. Working solution: The stock solution was stepwisely diluted to obtain the solutions at each gradient concentration. 5.00 μl of reference standard working solution was added to 45.0 μl of a mice blank plasma and blank tissue. Then it was treated according to the method described in the section of “Sample pretreatment method”. Administration solution: a certain amount of a compound was precisely weighed and formulated into a 2.00 mg/ml milky white suspension in a ratio of 2.5% DMSO+97.5% (0.5% MC). Approximately 0.1 ml of orbital blood and liver was collected in EDTAK2 for anticoagulation from each animal that had been anesthetized with isoflurane. For the PO group, the blood was collected at 1 h, 3 h, and 8 h after administration of the test compound. After collection, the blood sample was analyzed by using comparative compounds I-70 and I-88.

[3] = mouse, liver, read-out: Mean drug concentration, Liver
[4] = mouse, plasma, read-out: Mean drug concentration, Plasma

Compound | CC50 at 8 days [1] | IC50 (HBV) | other results
Cc1ccc(-c2nn(Cc3ccc(Cl)cc3)c(=O)c3ccccc23)c(F)n1 [Compound I-10] | 81.8 µM | 100 nM | content of HBV DNA in the capsid (HBV capsid): significantly reduced; generation of abnormal capsid (electrophoretic migration) (HBV capsid): induce the generation of an abnormal capsid with faster electrophoretic migration speed; concentration at 1 h [2, 3]: 476 ng/g; concentration at 3 h [2, 3]: 318 ng/g; concentration at 8 h ([2]; mouse, liver, 8 h, read-out: Mean drug concentration, Liver): 2.91 ng/g; concentration at 1 h [2, 4]: 61 ng/mL; concentration at 3 h [2, 4]: 12.5 ng/mL; liver targeting [2]: good liver targeting in mice; Mean drug concentration, Plasma ([2]; 8 h): BLQ
O=c1c2ccccc2c(-c2cc(Cl)cnc2F)nn1Cc1ccc(Cl)cc1 [Compound I-39] | > 25 µM | 210 nM | 
CC1(C)OCC(CNc2nc(F)c(-c3nn(Cc4ccc(C#N)cc4)c(=O)c4ccccc34)cc2Cl)O1 (stereo not shown) [IV-79] | > 100 µM | 347 nM | 
O=c1c2ccccc2c(-c2ccc(F)nc2F)nn1Cc1ccc(Cl)cc1 [Compound I-9] | 40.7 µM | 300 nM | content of HBV DNA in the capsid (HBV capsid): significantly reduced; generation of abnormal capsid (electrophoretic migration) (HBV capsid): induce the generation of an abnormal capsid with faster electrophoretic migration speed
COc1ncc(-c2nn(Cc3ccc(Cl)cc3)c(=O)c3ccccc23)cn1 [II-3] | > 100 µM | 8800 nM | 
COCNc1ccc(-c2nn(Cc3ccc(Cl)cc3)c(=O)c3ccccc23)c(F)n1 [Compound I-15] | > 100 µM | 6200 nM | 
Cc1ccc(-c2nn(Cc3ccc(Cl)cc3)c(=O)c3ccc(C(F)(F)F)cc23)c(F)n1 [Compound V-8] | > 100 µM | 1100 nM | 
N#Cc1ccc(Cn2nc(-c3cccnc3F)c3ccccc3c2=O)cc1 [IV-2] | > 100 µM | 1180 nM | 
O=c1c2ccccc2c(-c2ccc(NC3CC3)nc2F)nn1Cc1ccc(Cl)cc1 [Compound I-16] | 20.1 µM | 500 nM | 
CC(C)(C)OC(=O)NCCCCNc1ccc(-c2nn(Cc3ccc(C#N)cc3)c(=O)c3ccccc23)c(F)n1 [IV-45] | > 100 µM | 368 nM | 
COCCNc1nc(F)c(-c2nn(Cc3ccc(C#N)cc3)c(=O)c3ccccc23)cc1Cl [IV-27] | > 100 µM | 14.2 nM | 
N#Cc1ccc(Cn2nc(-c3ccc(NCCC(F)(F)F)nc3F)c3ccccc3c2=O)cc1 [IV-83] | > 100 µM | 413 nM | 
CC(C)(C)OC(=O)NCCCCNc1nc(F)c(-c2nn(Cc3ccc(C#N)cc3)c(=O)c3ccccc23)cc1Cl [IV-46] | > 100 µM | 14 nM | 
